{"source": "patent EP3760185A1", "about": "“COSMETIC COMPOSITION TO PREVENT AND DELAY SKIN AGING” (Riccio, Rodolfo, priority 2019, dated 2021)", "test_system": "actin", "experiment": "polymerization of actin (in vitro test)", "format": "cell-based", "details": "compared to control", "description": "Typically, the selected or purified maltodextrins described herein have the following properties: • a moisturizing and gelling (film-forming) action; • a stimulating action of fibroblasts and keratinocytes proliferation, responsible for the formation of granulation tissue and producers of collagen, elastin, proteoglycans, and other glycoproteins that intervene in the tissue regeneration phase • a skin regenerating action, found with representative in vitro tests such as synthesis of fibronectin, polymerization of actin, expression of enzymes such as Hyaluronan Synthase-2 • a skin protective action following the formation of an epidermal barrier", "data": [{"substance": "phosphatidic acid [PA]", "values": [{"measurement": "polymerization of actin increase", "value": 100, "unit": "%"}]}]}
